Experimental data taken from US20180296523A1, “USE OF POLYMETHOXYLATED FLAVONES TO AMELIORATE CIRCADIAN RHYTHM DISORDERS” (THE BOARD OF REGENTS OF THE UNIVERSITY OF TEXAS SY, priority 2017, published 2018).
“Also recorded” adds a separate entry of the source.

Legend:
[1] = system: Clock^Δ19/+ PER2::Luc reporter cells; test: High-throughput chemical screen, PER2::Luc reporter rhythm; assay type: cell-based, mouse; conditions: for PER2::Luc reporter rhythm / circadian amplitude: Clock^Δ19/+ cells, forskolin pre-stimulated
Experimental: Specifically, the chemical screen for circadian clock modulators was conducted at the Chemical Genomics Core facility at the University of Texas Health Science Center at Houston (UTHSC-H). The in-house chemical library screened consisted of compounds from the National Institutes of Health (NIH) Clinical Collection, National Cancer Institute collection, and Microsource Spectrum Collection. Screening was conducted largely on the basis of the protocol previously described (Chen et al., 2012). […] Upon confluency, cells were incubated with 5 μM forskolin for 1-2 hr, followed by the addition of chemical compounds to the plates with robotic arms (Beckman), and then subjected to continuous monitoring over several days in a temperature-controlled EnVision microplate reader (Perkin Elmer). Data analysis was carried out by using the MultiCycle software (Actimetrics) for measurement of period, phase, and amplitude. The chemical screen for circadian clock modulators was conducted at the Chemical Genomics Core facility at the UTHSC-H. The in-house chemical library screened consists of compounds from NIH Clinical Collection, NCI collection and Microsource Spectrum Collection. The screening was conducted largely based on the protocol previously described (Chen et al., 2012). […] Cells were then incubated with 5 μM forskolin for 1-2 h followed by the addition of chemical compounds to the plates with robotic arms (Beckman), and then subjected to continuous monitoring over several days in a temperature-controlled EnVision microplate reader (Perkin Elmer). Data analysis was carried out by using the MultiCycle software (Actimetrics) for measurement of period, phase, and amplitude. […] Tissue explant experiments were conducted as described previously (Chen et al., 2012).

GAL4 DBD-RORα LBD = biological target: T1, GAL4 DBD-RORα LBD (Mus musculus, UniProt P51448); test: Mammalian one-hybrid reporter assay in HEK293T cells, GAL4-RORα; assay type: cell-based; conditions: ligand interaction reduces transcriptional activity
T1 construct: mouse RORα-LBD (aa 261-523); expressed in transfected cells; host or cells: HEK293T
T1 sequence (P51448 261-523): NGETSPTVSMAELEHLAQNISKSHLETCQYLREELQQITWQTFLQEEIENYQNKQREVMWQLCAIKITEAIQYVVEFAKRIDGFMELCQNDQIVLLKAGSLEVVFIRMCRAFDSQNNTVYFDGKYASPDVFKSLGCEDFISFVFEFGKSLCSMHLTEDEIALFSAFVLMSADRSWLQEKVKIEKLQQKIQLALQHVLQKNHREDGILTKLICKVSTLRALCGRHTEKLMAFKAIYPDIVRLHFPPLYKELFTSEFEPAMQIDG
From the text: (§1) Plasmids containing the retinoic acid-related orphan receptor response element (RORE) from mouse Bmal1 promoter, pcDNA3.1B-G4DBD-RORαLBD and pcDNA3.1BG4DBD-RORγLBD were constructed in our lab. Specifically, the 1960 bp sequences (−1830/+130) of the mouse Bmal1 promoter harboring either WT ([…] (SEQ ID NO:1) and […] (SEQ ID NO:2)) or mutant ([…] (SEQ ID NO:3)) RORE were PCR amplified from mouse genomic DNA and cloned into pGL3-promoter luciferase vector. For expression of RORα or RORγ-GAL4 protein, mouse RORα-LBD (aa 261-523) or RORγ-LBD (aa 250-516) were PCR amplified from mouse genomic DNA and cloned into a GAL4-DBD-containing vector, pcDNA3.1B.
(§2) For mammalian one-hybrid assays, HEK293T cells were cotransfected with pcDNA3.1B-G4DBD-RORα/γLBD, pGL4.31 and TK promoter Renilla luciferase construct (tK.pRL). To investigate the regulation of the Bmal1 reporter, Hepa1-6 cells were cotransfected with Bmal1-WT or mutant RORE reporter plasmids, RORα, RORγ or Rev-erbα expression construct along with tK.pRL. Mouse and human siRNA targeting RORα and RORγ were purchased from Santa Cruz. Transfection was performed by Lipfectamine 2000 reagent (Invitrogen) Twenty-four hours after transfection, the cells were treated with vehicle or NOB. Lysates were collected 24 h after treatment, and firefly and Renilla luciferase activities were measured by using a Dual-Luciferase Reporter System (Promega).
(§3) For radio-ligand receptor binding assays, previously described protocols with minor modifications (Kumar et al., 2010; Wang et al., 2010b) were adopted.

GAL4 DBD-RORγ LBD = biological target: T2, GAL4 DBD-RORγ LBD (Mus musculus, UniProt P51450); test: Mammalian one-hybrid reporter assay in HEK293T cells, GAL4-RORγ; assay type: cell-based; conditions: ligand interaction reduces transcriptional activity
T2 construct: RORγ-LBD (aa 250-516); expressed in transfected cells; host or cells: HEK293T
T2 sequence (P51450 250-516): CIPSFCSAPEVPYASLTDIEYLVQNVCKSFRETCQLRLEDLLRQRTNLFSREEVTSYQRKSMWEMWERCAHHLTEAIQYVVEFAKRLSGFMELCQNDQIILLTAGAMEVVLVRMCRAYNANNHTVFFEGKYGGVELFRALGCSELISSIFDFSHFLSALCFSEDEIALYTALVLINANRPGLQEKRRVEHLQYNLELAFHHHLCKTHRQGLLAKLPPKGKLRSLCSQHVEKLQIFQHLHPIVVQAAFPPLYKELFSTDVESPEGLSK
From the text: as §1, §2, §3

RORγ-LBD = biological target: T3, RORγ-LBD (Homo sapiens, UniProt P51449); test: Radioligand receptor binding assay with 25-[3H]-OHC, RORγ-LBD; conditions: in the presence of 4.5 nM 25-[3H]-OHC
T3 sequence (P51449 269-508 limits assumed): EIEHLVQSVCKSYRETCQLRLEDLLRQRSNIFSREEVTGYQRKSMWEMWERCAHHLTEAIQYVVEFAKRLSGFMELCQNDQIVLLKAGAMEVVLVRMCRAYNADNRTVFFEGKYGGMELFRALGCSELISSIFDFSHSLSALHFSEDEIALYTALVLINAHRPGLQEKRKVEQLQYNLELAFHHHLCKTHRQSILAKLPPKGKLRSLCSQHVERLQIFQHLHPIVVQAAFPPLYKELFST
Experimental: Ligand binding was determined by filter binding assays to calculate the Kd value. […] Ki was determined using the Cheng-Prusoff equation.

Compound	PER2::Luc reporter rhythm / circadian amplitude [1]	reporter luminescence ([1]; PER2::LUC Clock^Δ19/+ reporter cells)	activity on GAL4-RORα chimeric receptor (GAL4 DBD-RORα LBD)	activity on GAL4-RORγ chimeric receptor (GAL4 DBD-RORγ LBD)	competitive binding to RORγ-LBD (RORγ-LBD)	PER2::Luc reporter rhythm / circadian amplitude ([1]; listed as Nobiletin)
C[C@@H]1O[C@@H](O[C@H]2[C@H](Oc3cc(O)c4c(c3)O[C@H](c3ccc(O)cc3)CC4=O)O[C@H](CO)[C@@H](O)[C@@H]2O)[C@H](O)[C@H](O)[C@H]1O [naringin, reference compound]	failed to enhance cellular circadian rhythms	did not enhance the reporter luminescence	no activities	no activities	markedly diminished binding	
COc1ccc(-c2cc(=O)c3c(OC)c(OC)c(OC)c(OC)c3o2)cc1OC [nobiletin]	enhance the reporter rhythm		robust activities	robust activities	direct binding; also recorded: robust competitive binding	significantly enhance circadian amplitude
